Read-outs that look alike come from different tables or passages of the source.
Key:
ceNaCT = target: T1, ceNaCT (Caenorhabditis elegans, UniProt P32739, I91S/L182M); test: Uptake via ceNaCT expressed in HRPE cells
T1 sequence (P32739 1-551 I91S/L182M): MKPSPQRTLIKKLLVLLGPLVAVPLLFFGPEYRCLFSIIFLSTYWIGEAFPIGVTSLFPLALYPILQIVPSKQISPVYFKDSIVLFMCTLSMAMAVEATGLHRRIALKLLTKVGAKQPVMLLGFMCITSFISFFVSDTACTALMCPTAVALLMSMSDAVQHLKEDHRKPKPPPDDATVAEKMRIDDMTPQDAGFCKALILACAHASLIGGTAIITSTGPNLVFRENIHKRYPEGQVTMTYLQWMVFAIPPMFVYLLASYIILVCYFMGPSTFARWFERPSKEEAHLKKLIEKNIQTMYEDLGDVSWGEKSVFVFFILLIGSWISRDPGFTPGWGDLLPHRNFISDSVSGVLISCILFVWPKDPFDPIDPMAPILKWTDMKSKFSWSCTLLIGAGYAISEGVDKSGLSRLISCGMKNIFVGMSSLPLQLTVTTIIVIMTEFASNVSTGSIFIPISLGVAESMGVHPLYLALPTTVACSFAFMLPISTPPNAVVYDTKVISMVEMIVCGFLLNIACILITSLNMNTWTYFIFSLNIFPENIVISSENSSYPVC

drIndy = drIndy (Drosophila melanogaster, UniProt Q9VVT2)
human NaCT = human NaCT (Homo sapiens, UniProt Q86YT5); test: Uptake via human NaCT expressed in HRPE cells; assay type: cell-based; conditions: for Citrate Uptake, cDNA / Citrate Uptake, cDNA-specific: pH 7.5
mouse NaCT = target: T2, mouse NaCT (Mus musculus, UniProt Q67BT3); test: Transport via mouse NaCT expressed in HRPE cells; assay type: cell-based
T2 sequence (Q67BT3 1-572): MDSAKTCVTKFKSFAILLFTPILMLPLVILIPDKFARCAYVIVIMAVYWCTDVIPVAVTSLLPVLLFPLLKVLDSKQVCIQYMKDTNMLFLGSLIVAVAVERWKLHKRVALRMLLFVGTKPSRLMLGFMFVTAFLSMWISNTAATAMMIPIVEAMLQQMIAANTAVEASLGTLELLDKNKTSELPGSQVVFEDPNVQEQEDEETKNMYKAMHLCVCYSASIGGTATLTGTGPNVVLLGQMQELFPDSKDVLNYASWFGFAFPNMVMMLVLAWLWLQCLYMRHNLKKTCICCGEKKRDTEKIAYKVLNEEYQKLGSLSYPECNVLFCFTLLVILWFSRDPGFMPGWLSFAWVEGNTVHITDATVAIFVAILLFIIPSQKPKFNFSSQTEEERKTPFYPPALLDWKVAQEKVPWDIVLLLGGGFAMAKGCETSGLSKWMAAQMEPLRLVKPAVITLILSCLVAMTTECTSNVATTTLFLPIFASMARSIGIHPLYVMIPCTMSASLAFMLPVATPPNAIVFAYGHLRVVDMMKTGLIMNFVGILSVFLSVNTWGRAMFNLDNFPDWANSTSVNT

rat NaCT = target: T3, rat NaCT (Rattus norvegicus, UniProt Q8CJ44); test: Uptake via rat NaCT expressed in HRPE cells; assay type: cell-based; conditions: for Citrate Uptake, cDNA / Citrate Uptake, cDNA-specific: pH 7.5
T3 sequence (Q8CJ44 1-572): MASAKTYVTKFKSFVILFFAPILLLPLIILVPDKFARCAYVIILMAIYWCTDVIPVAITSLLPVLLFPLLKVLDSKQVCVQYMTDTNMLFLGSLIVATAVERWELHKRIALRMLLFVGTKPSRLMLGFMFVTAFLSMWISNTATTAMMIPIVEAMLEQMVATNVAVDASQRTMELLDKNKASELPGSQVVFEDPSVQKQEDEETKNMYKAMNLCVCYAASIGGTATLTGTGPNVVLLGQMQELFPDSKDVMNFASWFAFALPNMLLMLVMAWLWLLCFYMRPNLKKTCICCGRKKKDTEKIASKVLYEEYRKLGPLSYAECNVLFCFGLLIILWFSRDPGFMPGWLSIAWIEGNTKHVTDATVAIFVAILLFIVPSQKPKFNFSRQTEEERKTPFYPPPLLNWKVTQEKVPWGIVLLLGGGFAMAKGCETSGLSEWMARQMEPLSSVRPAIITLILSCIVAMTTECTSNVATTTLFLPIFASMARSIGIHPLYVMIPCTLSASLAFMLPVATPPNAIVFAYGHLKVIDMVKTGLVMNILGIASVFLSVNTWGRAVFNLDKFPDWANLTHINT

[1] = [3H]succinate 40 nM, inhibitor 2.5 mM
[2] = [3H]succinate 40 nM, inhibitor 2.5 mM, NaCl buffer pH 7.5
[3] = citrate 35 μM, drIndy cDNA-transfected HRPE cells, indicated salt
[4] = [14C]citrate 7 μM, indicated salt
[5] = [14C]citrate 7 μM, rat NaCT cDNA-transfected HRPE, indicated salt
[6] = relative to NaCl, [14C]citrate 7 μM

Chain of human NaCT (Q86YT5 whole entry): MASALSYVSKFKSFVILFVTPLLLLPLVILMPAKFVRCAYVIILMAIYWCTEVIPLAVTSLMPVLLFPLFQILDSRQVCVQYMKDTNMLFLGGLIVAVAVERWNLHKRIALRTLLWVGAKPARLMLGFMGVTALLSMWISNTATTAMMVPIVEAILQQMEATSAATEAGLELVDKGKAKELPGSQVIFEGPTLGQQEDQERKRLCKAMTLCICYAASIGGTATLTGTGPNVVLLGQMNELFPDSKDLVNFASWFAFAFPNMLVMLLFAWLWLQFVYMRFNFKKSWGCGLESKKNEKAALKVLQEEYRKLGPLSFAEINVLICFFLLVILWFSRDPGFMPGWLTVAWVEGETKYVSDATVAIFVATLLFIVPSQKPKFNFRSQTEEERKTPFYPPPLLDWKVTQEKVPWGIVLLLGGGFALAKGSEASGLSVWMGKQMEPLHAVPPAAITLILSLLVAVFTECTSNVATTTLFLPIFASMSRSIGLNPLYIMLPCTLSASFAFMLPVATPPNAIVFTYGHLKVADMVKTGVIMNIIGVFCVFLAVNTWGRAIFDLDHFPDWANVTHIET
Chain of drIndy (Q9VVT2 19-590): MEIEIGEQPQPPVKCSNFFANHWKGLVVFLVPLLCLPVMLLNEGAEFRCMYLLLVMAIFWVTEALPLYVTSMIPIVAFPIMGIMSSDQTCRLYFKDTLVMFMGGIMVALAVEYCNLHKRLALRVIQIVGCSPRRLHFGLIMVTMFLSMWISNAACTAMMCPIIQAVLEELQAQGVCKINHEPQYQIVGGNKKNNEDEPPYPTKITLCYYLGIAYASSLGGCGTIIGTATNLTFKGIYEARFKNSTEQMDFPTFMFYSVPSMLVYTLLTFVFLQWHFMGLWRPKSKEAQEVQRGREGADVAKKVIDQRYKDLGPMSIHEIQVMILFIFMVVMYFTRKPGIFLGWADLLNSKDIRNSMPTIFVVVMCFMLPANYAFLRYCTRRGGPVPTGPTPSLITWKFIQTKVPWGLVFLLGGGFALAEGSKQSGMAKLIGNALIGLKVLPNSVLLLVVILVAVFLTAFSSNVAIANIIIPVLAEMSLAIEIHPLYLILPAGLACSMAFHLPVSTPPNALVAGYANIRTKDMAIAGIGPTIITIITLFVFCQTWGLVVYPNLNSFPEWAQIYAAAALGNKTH

O=C(O)CCC(=O)C(=O)O [2-Oxoglutarate]
Competition with [^14C]citrate for ceNaCT-mediated uptake (ceNaCT): inhibited markedly | % Control of cDNA-specific [^3H]succinate uptake (drIndy): 5% | cDNA-specific [^3H] succinate uptake (drIndy; pH 7.5): 3.0 ± 1.0 fmol/106 cells per min

COC(=O)CCC(=O)OC [Dimethylsuccinate]
% Control of cDNA-specific [^3H]succinate uptake (drIndy; [1]): 13% | cDNA-specific [^3H] succinate uptake (drIndy; [2]): 14.1 ± 0.8 fmol/106 cells per min

O=C(O)/C=C/C(=O)O [Fumarate]
[^14C]-Citrate Uptake (cDNA-specific) (human NaCT): 43.7 ± 5.0 pmol/10^6 cells/min | [^14C]-Citrate Uptake, % (human NaCT): 92% | IC50 (human NaCT; read-out: IC50 for inhibition of human NaCT-mediated [^14C]-citrate uptake): 12.6 ± 5 mM | Competition with [^14C]citrate for ceNaCT-mediated uptake (ceNaCT): inhibited markedly | [^3H]-Succinate transport (NaCT-specific) (mouse NaCT): 0.007 ± 0.002 pmol/10^6 cells/min | [^3H]-Succinate transport, % (mouse NaCT): 5% | [^14C]-Citrate transport (NaCT-specific) (mouse NaCT): 1.6 ± 0.4 pmol/10^6 cells/min | [^14C]-Citrate transport, % (mouse NaCT): 4% | % Control of cDNA-specific [^3H]succinate uptake (drIndy): 6% | cDNA-specific [^3H] succinate uptake (drIndy; pH 7.5): 4.8 ± 0.3 fmol/106 cells per min | [^14C]Citrate uptake (cDNA-specific) (rat NaCT): 17.7 ± 1.4 Pmol/10^6 cells/min | [^14C]Citrate uptake, % (rat NaCT): 16%

[Cl-].[K+] [KCl]
Citrate Uptake, cDNA-specific, % (human NaCT): 0% | Citrate Uptake, cDNA (human NaCT): 1.1 ± 0.1 pmol/10^6 cells/min | Citrate Uptake, cDNA-specific (human NaCT): −0.1 ± 0.1^ pmol/10^6 cells/min | Citrate uptake, drIndy (drIndy): 33.8 ± 2.7 pmol/10^6 cells per min | Fold Increase of citrate uptake (drIndy vs vector) (drIndy): 19.9 fold | Succinate uptake, drIndy (drIndy; pH 7.5): 111.0 ± 8.5 fmol/10^6 cells per min | Citrate Uptake, cDNA-specific, % (rat NaCT): 0% | Citrate Uptake, cDNA (rat NaCT): 0.6 ± 0.1 pmol/10^6 cells/min | Citrate Uptake, cDNA-specific (rat NaCT): 0.1 ± 0.1 pmol/10^6 cells/min

[Cl-].[Li+] [LiCl]
Citrate Uptake, cDNA (human NaCT; [14C]-citrate 20 μM, human NaCT cDNA-transfected HRPE, indicated salt): 2.0 ± 0.1 pmol/10^6 cells/min | Citrate Uptake, cDNA-specific (human NaCT; [14C]-citrate 20 μM, indicated salt): 0.7 ± 0.1 pmol/10^6 cells/min | Citrate Uptake, cDNA-specific, % (human NaCT; relative to NaCl): 1% | Citrate uptake, drIndy (drIndy; [3]): 52.1 ± 2.2 pmol/10^6 cells per min | Fold Increase of citrate uptake (drIndy vs vector) (drIndy; citrate 35 μM, indicated salt): 27.4 fold | Citrate Uptake, cDNA-specific (rat NaCT; [4]): 1.1 ± 0.1 pmol/10^6 cells/min | Citrate Uptake, cDNA (rat NaCT; [5]): 1.6 ± 0.1 pmol/10^6 cells/min | Citrate Uptake, cDNA-specific, % (rat NaCT; [6]): 3%

O=C(O)CC(O)C(=O)O (centres unmarked) [Malate, malate]
IC50 (human NaCT): 3.12 ± 1.34 mM | [^14C]-Citrate Uptake (cDNA-specific) (human NaCT; [14C]-citrate 20 μM, unlabeled compound 2.5 mM): 29.5 ± 1.9 pmol/10^6 cells/min | [^14C]-Citrate Uptake, % (human NaCT; [14C]-citrate 20 μM, unlabeled compound 2.5 mM, none = 100): 62% | Competition with [^14C]citrate for ceNaCT-mediated uptake (ceNaCT; competitor 2.5 mM, [14C]citrate 15 μM): inhibited markedly | [^3H]-Succinate transport (NaCT-specific) (mouse NaCT; [3H]-succinate 0.1 μM, substrate analog 2 mM): 0.004 ± 0.001 pmol/10^6 cells/min | [^3H]-Succinate transport, % (mouse NaCT; [3H]-succinate 0.1 μM, substrate analog 2 mM, control = 100): 3% | [^14C]-Citrate transport (NaCT-specific) (mouse NaCT; [14C]-citrate 10 μM, substrate analog 2 mM): 0.2 ± 0.1 pmol/10^6 cells/min | [^14C]-Citrate transport, % (mouse NaCT; [14C]-citrate 10 μM, substrate analog 2 mM, control = 100): 1% | % Control of cDNA-specific [^3H]succinate uptake (drIndy; [1]): 8% | cDNA-specific [^3H] succinate uptake (drIndy; [2]): 6.8 ± 2.7 fmol/106 cells per min | [^14C]Citrate uptake (cDNA-specific) (rat NaCT; [14C]citrate 14 μM, unlabeled compound 2.5 mM): 7.8 ± 0.1 Pmol/10^6 cells/min | [^14C]Citrate uptake, % (rat NaCT; [14C]citrate 14 μM, unlabeled compound 2.5 mM, none = 100): 7%

O=C(O)CC(=O)O [Malonate, malonate]
[^14C]-Citrate Uptake (cDNA-specific) (human NaCT): 57.3 ± 3.2 pmol/10^6 cells/min | [^14C]-Citrate Uptake, % (human NaCT): 120% | Competition with [^14C]citrate for ceNaCT-mediated uptake (ceNaCT): failed to inhibit the uptake of citrate | % Control of cDNA-specific [^3H]succinate uptake (drIndy): 71% | cDNA-specific [^3H] succinate uptake (drIndy; pH 7.5): 98.8 ± 7.1 fmol/106 cells per min

OC[C@@H](O)[C@@H](O)[C@H](O)[C@H](O)CO [Mannitol]
Citrate uptake, drIndy (drIndy; [3]): 26.3 ± 0.3 pmol/10^6 cells per min | Fold Increase of citrate uptake (drIndy vs vector) (drIndy; citrate 35 μM, indicated salt): 15.5 fold | Citrate Uptake, cDNA-specific (rat NaCT; [4]): 0.1 ± 0.1 pmol/10^6 cells/min | Citrate Uptake, cDNA (rat NaCT; [5]): 0.7 ± 0.1 pmol/10^6 cells/min | Citrate Uptake, cDNA-specific, % (rat NaCT; [6]): 0%

Source: patent publication US20050095240A1, “NaCT as a target for lifespan expansion and weight reduction” (Medical College of Georgia Research, priority 2002, published 2005)
